US20110009435A1, “HETERO BICYCLIC CARBOXAMIDE DERIVATIVES AND THEIR PHARMACEUTICAL USE AND COMPOSITIONS” (Pfizer, Inc., priority 2007, published 2011)
pKi: −log10 of the molar value. Structures can show the parent of a compound that is named as a salt.

Legend:
[1] = target: T1, catalytic domain of human recombinant MMP-3 (Homo sapiens, UniProt P08254); test: In vitro MMP inhibition assay, MMP-3 catalytic domain (fluorogenic peptide substrate cleavage, Ki); format: biochemical; conditions: human MMP-3, catalytic domain (CD); read-out: hMMP Ki 03/CD
T1 construct: made in house
Protocol: (§1) Matrix Metalloproteinase inhibitor compounds were analyzed in in vitro MMP Inhibition assays to determine their ability to inhibit the MMP cleavage of peptide substrates. Inhibition constants (Ki) were calculated from the assayed compound-MMP interactions.
(§2) Human recombinant MMP-1, MMP-2, MMP-3, MMP-7, MMP-9, MMP-12, MMP-13, MMP-14 and MMP-15 were used in these assays. The enzymes are prepared following known laboratory procedures. Protocols for the preparation and use of these enzymes are available in the scientific literature. See, e.g., Enzyme Nomenclature (Academic Press, San Diego, Calif., 1992) and the citations therein. See also Frije et al., J. Biol. Chem., 26(24), 16766-73 (1994).
The catalytic domain MMP-3 cDNA may be used to express the catalytic domain enzyme in E. coli inclusion bodies. Then the enzyme is solubilized in urea, purified on a preparative […] reverse phase HPLC column, and refolded in the presence of zinc acetate and purified for use.
The fluorogenic, methoxycoumarin-containing polypeptide substrate Mca-Arg-Pro-Lys-Pro-Val-Glu-Nva-Trp-Arg-Lys(Dnp)-NH2 (Bachem catalog number M-2110) was used as the MMP substrate in the MMP inhibition assays for catalytic domain of human recombinant MMP-3 (which refers to the catalytic domain of stromelysin). Here, “MCA” is 7-methoxycoumarin-4-yl acetyl and “Dpa” is 3-(2,4-dinitrophenyl)-L-2,3-di-aminopropionyl group. In the absence of MMP inhibitory activity, the substrate is cleaved at the Gly-Leu peptide bond. The cleavage separates the highly fluorogenic peptide from the 2,4-dinitrophenyl quencher, resulting in an increase of fluorescent intensity.
For the human MMP-3 assay, dilutions of the inhibitors (or salts thereof) were prepared in 100% DMSO. The stock solutions were diluted in Buffer B (50 mM N-morpholinoethane sulfonate (“MES”), 100 mM NaCl, 10 mM CaCl2, 0.005% polyoxyethylene 23 lauryl ether, pH 6.0)) to obtain solutions with different compound concentrations, i.e., assay solutions with different concentrations of the assayed MMP inhibitory compound in 1% DMSO. The experiment controls contained the same amount of Buffer B/DMSO as the assayed sample, but contained no inhibitor.
(§3) To determine Ki, the inhibitor samples are incubated at room temperature for 1 hr in the presence of enzyme and then 4 μM of appropriate MMP substrate was added, and samples were analyzed on a Tecan SpectraFlour Plus plate reader. The excitation wavelength is 330 nm, and the emission (fluorescence) wavelength is 420 nm. In the absence of MMP inhibitory activity, the substrate is cleaved at the Gly-Leu bond resulting in an increase of relative fluorescence. Inhibition is observed as a reduced rate of increase in relative fluorescence.
The inhibitors are analyzed using a single low enzyme concentration with a single substrate concentration fixed at or below the Km. This protocol is a modification of method by Knight et al., FEBS Lett., 296(3), 263-266 (1992). Apparent inhibitory constants are determined by non-linear regression of reaction velocity as a function of inhibitor and enzyme concentration using Morrison's equation, as described by Kuzmic, Anal. Biochem. 286, 45-50 (2000). Modifications were made in the non-linear regression method to allow a common control reaction rate and effective enzyme concentration to be shared between all dose-response relationships on a given assay plate. Since the substrate concentration was chosen to be at or below the Km, the apparent Ki's from this analysis were reported as Ki's without correction for the influence of substrate.

Human recombinant MMP-13 = target: T2, Human recombinant MMP-13 (Homo sapiens, UniProt P45452); test: In vitro MMP inhibition assay, MMP-13 (fluorogenic peptide substrate cleavage, Ki); format: biochemical; conditions: human MMP-13, full length (FL); read-out: hMMP Ki 13/FL
T2 construct: made in house; host or cells: baculovirus expression (insect cells)
Protocol: as §1, §2
The MMP-13 may be obtained as a proenzyme from a full-length cDNA clone using baculovirus expression, as described by V. A. Luckow, “Insect Cell Expression Technology,” Protein Engineering: Principles and Practice, pp. 183-218 (edited by J. L. Cleland et al., Wiley-Liss, Inc., 1996). The expressed proenzyme was first purified over a heparin agarose column, and then over a chelating zinc chloride column. Further details on baculovirus expression systems may be found in, for example, Luckow et al., J. Virol., 67, 4566-79 (1993). See also O'Reilly et al, Baculovirus Expression Vectors: A Laboratory Manual (W. H. Freeman and Co., New York, N.Y., 1992). See also King et al., The Baculovirus Expression System: A Laboratory Guide (Chapman & Hall, London, England, 1992).
All full length MMPs were activated using 4-aminophenylmercuric acetate (“APMA”, Sigma Chemical, St. Louis, Mo.) or trypsin. MMP-9 also was activated using human recombinant MMP-3 following standard cloning and purification techniques.
The fluorogenic, methoxycoumarin-containing polypeptide substrate MCA-ArgProLeuGlyLeuDpaAlaArgGluArgNH2 was used as the MMP substrate in the MMP inhibition assays for human recombinant MMP-1, MMP-2, MMP-7, MMP-9, MMP-12, MMP-13, MMP-14 and MMP-15. Here, “MCA” is 7-methoxycoumarin-4-yl acetyl and “Dpa” is 3-(2,4-dinitrophenyl)-L-2,3-di-aminopropionyl group. In the absence of MMP inhibitory activity, the substrate is cleaved at the Gly-Leu peptide bond. The cleavage separates the highly fluorogenic peptide from the 2,4-dinitrophenyl quencher, resulting in an increase of fluorescent intensity.
For the human MMP-1, MMP-2, MMP-7, MMP-9, MMP-12, MMP-13, MMP-14 and MMP-15 assays, dilutions of the inhibitors (or salts thereof) were prepared in 100% dimethyl sulfoxide (DMSO). The stock solutions were diluted in Buffer A (100 mM Tris-HCl, 100 mM NaCl, 10 mM CaCl2, 0.005% polyoxyethylene 23 lauryl ether, pH 7.5) to obtain solutions with different compound concentrations, i.e., assay solutions with different concentrations of the assayed MMP inhibitory compound in 1% DMSO. The experiment controls contained the same amount of Buffer A/DMSO as the assayed sample, but contained no inhibitor.
as §3
The inhibitors are analyzed using a single low enzyme concentration with a single substrate concentration fixed at or below the Km. This protocol is a modification of method by Knight et al., FEBS Lett., 296(3), 263-266 (1992). Apparent inhibitory constants are determined by non-linear regression of reaction velocity as a function of inhibitor and enzyme concentration using Morrison's equation, as described by Kuzmic, Anal. Biochem. 286, 45-50 (2000). […]

T1 sequence (P08254 100-272 limits assumed): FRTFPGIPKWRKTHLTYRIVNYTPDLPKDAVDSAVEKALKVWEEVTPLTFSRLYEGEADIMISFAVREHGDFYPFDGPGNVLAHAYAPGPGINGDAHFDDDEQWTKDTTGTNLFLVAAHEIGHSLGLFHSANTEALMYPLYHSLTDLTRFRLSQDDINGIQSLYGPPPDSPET

Structure (SMILES)	pKi [1]	pKi (Human recombinant MMP-13)
COc1cccc(CNC(=O)c2nc3ccc(F)c(OCCC4CCN(S(C)(=O)=O)CC4)c3c(=O)[nH]2)c1 [Example 31, 6-fluoro-N-(3-methoxybenzyl)-5-{2-[1-(methylsulfonyl)piperidin-4-yl]ethoxy}-4-oxo-3,4-dihydroquinazoline-2-carboxamide]	5.89	10.07
COc1cccc(CNC(=O)c2nc3ccc(F)c(OC[C@H]4CC[C@H](CO)CC4)c3c(=O)[nH]2)c1 [Example 29, 6-fluoro-5-{[trans-4-(hydroxymethyl)cyclohexyl]methoxy}-N-(3-methoxybenzyl)-4-oxo-3,4-dihydroquinazoline-2-carboxamide]	5.80	9.43
COc1cccc(CNC(=O)c2nc3scc(COCCC4CCN(S(C)(=O)=O)CC4)c3c(=O)[nH]2)c1 [Example 27, N-(3-methoxybenzyl)-5-({2-[1-(methylsulfonyl)piperidin-4-yl]ethoxy}methyl)-4-oxo-3,4-dihydrothieno[2,3-d]pyrimidine-2-carboxamide]	6.11	8.75
COc1cccc(CNC(=O)c2nc3ccc(F)c(OCCC4CCN(C(C)=O)CC4)c3c(=O)[nH]2)c1 [Example 32, 5-[2-(1-acetylpiperidin-4-yl)ethoxy]-6-fluoro-N-(3-methoxybenzyl)-4-oxo-3,4-dihydroquinazoline-2-carboxamide]	5.71	9.74
COc1cccc(CNC(=O)c2nc3scc(COC[C@H]4CC[C@H](NC(C)=O)CC4)c3c(=O)[nH]2)c1 [Example 17, 5-({[trans-4-(Acetylamino)cyclohexyl]methoxy}methyl)-N-(3-methoxybenzyl)-4-oxo-3,4-dihydrothieno[2,3-d]pyrimidine-2-carboxamide]	6.18	8.79
COc1cc(CNC(=O)c2nc3scc(COC[C@H]4CC[C@H](C#N)CC4)c3c(=O)[nH]2)ccc1F [Example 14, N-(4-Fluoro-3-methoxybenzyl)-5-(((trans-4-cyanocyclohexyl)methoxy)methyl)-4-oxo-3,4-dihydrothieno[2,3-d]pyrimidine-2-carboxamide]	6.46	9.32
COc1cccc(CNC(=O)c2nc3ccc(F)c(OCCC4CCN(CCO)CC4)c3c(=O)[nH]2)c1 [Example 35, 6-fluoro-5-{2-[1-(2-hydroxyethyl)piperidin-4-yl]ethoxy}-N-(3-methoxybenzyl)-4-oxo-3,4-dihydroquinazoline-2-carboxamide]	5.28	8.38
COc1cccc(CNC(=O)c2nc3scc(COC[C@H]4CC[C@H](C#N)CC4)c3c(=O)[nH]2)c1 [Example 6, N-(3-Methoxybenzyl)-5-(((trans-4-cyanocyclohexyl)methoxy)methyl)-4-oxo-3,4-dihydrothieno[2,3-d]pyrimidine-2-carboxamide]	6.33	9.13
COc1cccc(CNC(=O)c2nc3ccc(F)c(OC[C@@H]4CO[C@@H](CN)CO4)c3c(=O)[nH]2)c1 (relative stereo) [Example 36, 5-{[(trans 2,5)-5-(aminomethyl)-1,4-dioxan-2-yl]methoxy}-6-fluoro-N-(3-methoxybenzyl)-4-oxo-3,4-dihydroquinazoline-2-carboxamide]	–	7.70

Continued by rising pKi (Human recombinant MMP-13), values first:

pKi [1]	pKi (Human recombinant MMP-13)	Structure (SMILES)
–	7.89	COc1cccc(CNC(=O)c2nc3scc(COC[C@H]4CC[C@H](N)CC4)c3c(=O)[nH]2)c1 [Example 1, 5-({[trans-4-Aminocyclohexyl]methoxy}methyl)-N-(3-methoxybenzyl)-4-oxo-3,4-dihydrothieno[2,3-d]pyrimidine-2-carboxamide]
–	8.03	COc1cccc(CNC(=O)c2nc3scc(COCCC4CCNCC4)c3c(=O)[nH]2)c1 [Example 26, N-(3-methoxybenzyl)-4-oxo-5-[(2-piperidin-4-ylethoxy)methyl]-3,4-dihydrothieno[2,3-d]pyrimidine-2-carboxamide hydrochloride]
5.88	8.38	COc1cccc(CNC(=O)c2nc3scc(COC[C@@H]4CO[C@@H](C(=O)O)CO4)c3c(=O)[nH]2)c1 (relative stereo) [Example 8, Trans-5-(((2-((3-Methoxybenzyl)carbamoyl)-4-oxo-3,4-dihydrothieno[2,3-d]pyrimidin-5-yl)methoxy)methyl)-1,4-dioxane-2-carboxylic acid]
5.03	8.72	COc1cccc(CNC(=O)c2nc3ccc(F)c(OCCC4CCNCC4)c3c(=O)[nH]2)c1 [Example 30, 6-fluoro-N-(3-methoxybenzyl)-4-oxo-5-(2-piperidin-4-ylethoxy)-3,4-dihydroquinazoline-2-carboxamide]
6.18	8.79	COc1cc(CNC(=O)c2nc3scc(COC[C@@H]4CO[C@@H](C(=O)O)CO4)c3c(=O)[nH]2)ccc1F (relative stereo) [Example 12, Trans-5-(((2-((4-Fluoro-3-methoxybenzyl)carbamoyl)-4-oxo-3,4-dihydrothieno[2,3-d]pyrimidin-5-yl)methoxy)methyl)-1,4-dioxane-2-carboxylic acid]
6.34	9.24	COc1cc(CNC(=O)c2nc3scc(COC[C@H]4CC[C@H](NC(=O)CO)CC4)c3c(=O)[nH]2)ccc1F [Example 23, N-(4-Fluoro-3-methoxybenzyl)-5-((((trans-1,4)-4-(2-hydroxyacetamido)cyclohexyl)methoxy)methyl)-4-oxo-3,4-dihydrothieno[2,3-d]pyrimidine-2-carboxamide]
6.59	9.85	COc1cc(CNC(=O)c2nc3scc(COC[C@H]4CC[C@H](C(N)=O)CC4)c3c(=O)[nH]2)ccc1F [Example 13, N-(4-Fluoro-3-methoxybenzyl)-5-(((trans-4-carbamoylcyclohexyl)methoxy)methyl)-4-oxo-3,4-dihydrothieno[2,3-d]pyrimidine-2-carboxamide]
